For one test, the target named is T1, α4β2-nAChR (Homo sapiens, UniProt P17787+P43681).
T1 construct: expressed in transfected cells; host or cells: SH-EP1 epithelial cells (SH-EP1-hα4β2)
The test can be described thus: 86Rb+ efflux nAChR functional assay, SH-EP1-hα4β2 cells. The test is classed as cell-based. The source says:
(§1) Cell Lines and Culture: Human embryonic kidney (HEK-293) cells stably expressing human DAT, NET or SERT were maintained as previously described in Eshleman, A. J.; Carmolli, M.; Cumbay, M.; Martens, C. R.; Neve, K. A.; Janowsky, A., J. Pharmacol. Exp. Ther. 1999, 289, (2), 877-885. Use was made of several human cell lines that naturally or heterologously express specific, functional, human nAChR subtypes. Cells of the TE671/RD line naturally expresses muscle-type nAChR (a1β1γδ- or α1*-nAChR), and SH-SY5Y neuroblastoma cells naturally expresses autonomic α3β4*-nAChRs (containing α3, β4, probably α5, and sometimes β2 subunits). Different clones of SH-EP1 epithelial cell lines have been engineered to heterologously express either α4β2-nAChR, which are thought to be the most abundant, high affinity nicotine-binding nAChR in mammalian brain, or α4β4-nAChR, another possible brain nAChR subtype (SH-EP1-hα4β2 or α4β4 cells, respectively). These cells were maintained as low passage number (1-26 from our frozen stocks) cultures to ensure stable expression of native or heterologously-expressed nAChR as previously described (see Lukas, R. J.; Fryer, J. D.; Eaton, J. B.; L., G. C., Some methods for studies of nicotinic acetylcholine receptor pharmacology, in Nicotinic receptors and the Nervous System, Levine, E. D., Ed. CRC Press: Boca Raton, 2002; pp 3-27, incorporated herein by reference in its entirety). Cells were passaged once weekly by splitting just-confluent cultures 1/300 (TE671/RD), 1/5 (SH-SY5Y), or 1/20 (transfected SH-EP1) in serum-supplemented medium to maintain log-phase growth.
(§2) After cells had adhered (generally overnight, but no sooner than 4 h later), the medium was removed and replaced with 250 μL per well of complete medium supplemented with ˜350,000 cpm of ^86Rb^+ (PerkinElmer Life and Analytical Sciences, Boston, Mass.) and counted at 40% efficiency using Cerenkov counting (TriCarb 1900 liquid scintillation analyzer[…]; PerkinElmer Life Sciences).
(§3) After at least 4 h and typically overnight, ^86Rb^+ efflux was measured using the “flip-plate” technique. See Lukas, R. J.; Fryer, J. D.; Eaton, J. B.; L., G. C., Some methods for studies of nicotinic acetylcholine receptor pharmacology, in Nicotinic receptors and the Nervous System, Levine, E. D., Ed. CRC Press: Boca Raton, 2002; pp 3-27, incorporated herein by reference in its entirety). Briefly, after aspiration of the bulk of ^86Rb^+ loading medium from each well of the “cell plate,” each well containing cells was rinsed 3× with 2 mL of fresh ^86Rb^+ efflux buffer (130 mM NaCl, 5.4 mM KCl, 2 mM CaCl2, 5 mM glucose, 50 mM HEPES, pH 7.4) to remove extracellular ^86Rb^+. Following removal of residual rinse buffer by aspiration, the flip-plate technique was used again to simultaneously introduce 1.5 mL of fresh efflux buffer containing drugs of choice at indicated final concentrations from a 24-well “efflux/drug plate” into the wells of the cell plate. After a 5 min incubation, the solution was “flipped” back into the efflux/drug plate, and any remaining buffer in the cell plate was removed by aspiration. Cells remaining in the cell plate were lysed and suspended by addition of 1.5 mL of 0.1 M NaOH, 0.1% sodium dodecyl sulfate to each well.
(§4) Similarly, the sum of ^86Rb^+ in cell plates and efflux/drug plates also determined the efficiency of ^86Rb^+ loading (the percentage of applied ^86Rb^+ actually loaded into cells).
(§5) Specific efflux was then taken as the difference in control samples between total and non-specific ^86Rb^+ efflux. Any intrinsic agonist activity of test drugs was ascertained using samples containing test drug only at different concentrations and was normalized, after subtraction of non-specific efflux, to specific efflux in test drug-free, control samples.

The target of another test is T2, α4β4-nAChR (Homo sapiens, UniProt P30926+P43681).
T2 construct: expressed in transfected cells; host or cells: SH-EP1 epithelial cells (SH-EP1-hα4β4)
T2 sequence (P43681 29-627 limits assumed): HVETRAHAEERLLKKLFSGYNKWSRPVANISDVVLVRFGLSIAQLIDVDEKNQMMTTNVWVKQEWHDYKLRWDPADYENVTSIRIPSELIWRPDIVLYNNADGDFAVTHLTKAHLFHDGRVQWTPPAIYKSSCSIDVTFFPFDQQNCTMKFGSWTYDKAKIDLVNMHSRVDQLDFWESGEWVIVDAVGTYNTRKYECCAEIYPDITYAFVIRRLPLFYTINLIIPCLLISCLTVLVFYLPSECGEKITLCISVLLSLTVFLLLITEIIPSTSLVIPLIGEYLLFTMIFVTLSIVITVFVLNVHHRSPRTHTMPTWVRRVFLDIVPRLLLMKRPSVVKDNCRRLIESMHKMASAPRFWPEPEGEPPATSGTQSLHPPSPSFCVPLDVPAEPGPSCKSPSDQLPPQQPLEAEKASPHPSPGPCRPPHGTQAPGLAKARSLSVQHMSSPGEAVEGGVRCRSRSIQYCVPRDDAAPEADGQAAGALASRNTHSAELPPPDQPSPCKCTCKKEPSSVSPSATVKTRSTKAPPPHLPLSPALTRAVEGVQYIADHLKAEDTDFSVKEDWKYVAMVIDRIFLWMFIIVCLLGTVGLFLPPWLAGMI
T2 sequence (P30926 22-498): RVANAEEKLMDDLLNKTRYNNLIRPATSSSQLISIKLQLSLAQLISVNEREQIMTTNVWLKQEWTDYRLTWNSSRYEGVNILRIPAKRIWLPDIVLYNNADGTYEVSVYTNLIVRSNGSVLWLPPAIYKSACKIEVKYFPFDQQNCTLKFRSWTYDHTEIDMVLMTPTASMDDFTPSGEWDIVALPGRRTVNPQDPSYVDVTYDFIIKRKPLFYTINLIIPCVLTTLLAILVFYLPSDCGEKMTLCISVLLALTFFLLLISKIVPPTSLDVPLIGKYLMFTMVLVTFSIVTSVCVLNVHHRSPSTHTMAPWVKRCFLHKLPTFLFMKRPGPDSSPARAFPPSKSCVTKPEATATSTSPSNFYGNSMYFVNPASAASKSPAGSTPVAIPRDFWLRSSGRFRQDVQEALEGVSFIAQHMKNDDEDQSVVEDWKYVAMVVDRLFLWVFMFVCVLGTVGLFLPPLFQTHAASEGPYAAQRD
The test can be described thus: 86Rb+ efflux nAChR functional assay, SH-EP1-hα4β4 cells. The test is classed as cell-based. Particulars: EC80-EC90 carbamylcholine, parentheses = S.E.M. as multiplication/division factor, read-out: nAChR inhibition IC50 α4β4.
Excerpt: as §1, §2, §3, §4, §5

The target of the next test is T3, α3β4*-nAChR (Homo sapiens, UniProt P30926+P32297).
T3 construct: other: EC80-EC90 carbamylcholine; SH-SY5Y; parentheses = S.E.M. as multiplication/division
T3 sequence (P32297 32-505): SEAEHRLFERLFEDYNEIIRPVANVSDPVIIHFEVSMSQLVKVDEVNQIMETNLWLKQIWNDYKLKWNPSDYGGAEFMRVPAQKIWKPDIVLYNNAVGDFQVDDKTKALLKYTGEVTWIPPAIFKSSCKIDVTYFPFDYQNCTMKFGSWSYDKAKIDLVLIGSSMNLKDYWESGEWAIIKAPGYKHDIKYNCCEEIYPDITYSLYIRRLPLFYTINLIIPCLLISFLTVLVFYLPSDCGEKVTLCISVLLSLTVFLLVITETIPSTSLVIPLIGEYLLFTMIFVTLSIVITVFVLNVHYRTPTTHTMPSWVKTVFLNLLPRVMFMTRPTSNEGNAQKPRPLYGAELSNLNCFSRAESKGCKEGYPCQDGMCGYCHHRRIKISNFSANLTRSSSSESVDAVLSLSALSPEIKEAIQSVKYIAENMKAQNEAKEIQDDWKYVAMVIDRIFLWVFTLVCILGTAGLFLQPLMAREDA
T3 sequence (P30926 22-498): as the sequence (P30926 22-498) above
The test can be described thus: 86Rb+ efflux nAChR functional assay, SH-SY5Y cells. Particulars: EC80-EC90 carbamylcholine; SH-SY5Y; parentheses = S.E.M. as multiplication/division factor; read-out: nAChR inhibition IC50 α3β4±. The test is classed as cell-based.
Excerpt: as §1, §2, §3, §4, §5

Test [1] has as its system Male Institute of Cancer Research (ICR) mice. The test can be described thus: Hot-plate test, blockade of nicotine-induced antinociception. Particulars: pretreatment 15 min before nicotine 2.5 mg/kg s.c., tested 5 min after nicotine. The test is classed as in vivo. The source says:
Animals: Male Institute of Cancer Research (ICR) mice (weighing 20-25 g) obtained from Harlan (Indianapolis, Ind.) were used throughout the study. Animals were housed in an Association for Assessment and Accreditation of Laboratory Animal Care-approved facility, were placed in groups of six, and had free access to food and water. Studies were approved by the Institutional Animal Care and Use Committee of Virginia Commonwealth University.
Hot-Plate Test: Mice were placed into a 10-cm wide glass cylinder on a hot plate (Thermojust Apparatus) maintained at 55° C. for assessment of pain responses mediated at supraspinal levels. To minimize tissue damage, a maximum exposure to the hot plate 40 s was imposed. Measures of control latencies (time until the animal jumped or licked its paws; typically 8-12 s) were done twice for stimuli applied at least 10 min apart for each mouse. Antinociceptive responses after test drug administrations were determined and calculated as the % MPE, where % MPE=[(test latency in s−control latency in s)/(40 s−control latency in s)×100]. Groups of 8 to 12 animals were used for each drug condition. […] The animals were then tested 5 min after administration of a subcutaneous dose of 2.5 mg/kg nicotine.

The target in the next test is T4, NE transporters [h(NET)] (Homo sapiens, UniProt P23975).
T4 construct: expressed in transfected cells; host or cells: HEK-293
T4 sequence (P23975 whole entry): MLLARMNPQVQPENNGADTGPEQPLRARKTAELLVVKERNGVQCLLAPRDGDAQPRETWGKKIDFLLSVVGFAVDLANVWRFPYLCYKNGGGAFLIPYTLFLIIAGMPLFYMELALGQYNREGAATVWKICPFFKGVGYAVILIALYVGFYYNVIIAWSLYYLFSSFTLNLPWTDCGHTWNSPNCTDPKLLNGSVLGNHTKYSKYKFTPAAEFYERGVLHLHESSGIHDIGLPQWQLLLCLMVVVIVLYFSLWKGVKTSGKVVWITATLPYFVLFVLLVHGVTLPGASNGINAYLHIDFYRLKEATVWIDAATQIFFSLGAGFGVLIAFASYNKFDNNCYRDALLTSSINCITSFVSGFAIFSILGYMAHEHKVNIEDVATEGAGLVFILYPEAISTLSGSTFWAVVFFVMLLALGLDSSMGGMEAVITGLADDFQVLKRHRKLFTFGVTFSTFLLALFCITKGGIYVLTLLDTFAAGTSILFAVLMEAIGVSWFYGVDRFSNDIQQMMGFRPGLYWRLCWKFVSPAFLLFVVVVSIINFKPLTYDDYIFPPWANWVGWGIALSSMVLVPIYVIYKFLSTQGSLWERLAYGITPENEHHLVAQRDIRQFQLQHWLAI
Nature of the test: Inhibition of [3H]norepinephrine uptake into HEK293 cells stably expressing hNET. The format is cell-based. Particulars: for IC50: HEK293-hNET, mean ± standard error of three independent experiments, read-out: monoamine uptake inhibition IC50 [3H]NE; for selectivity for inhibition of NE over DA uptake: ratio of uptake IC50 values.
Excerpt: as §1
See, for example, Damaj, M. I.; Carroll, F. I.; Eaton, J. B.; Navarro, H. A.; Blough, B. E.; Mirza, S.; Lukas, R. J.; Martin, B. R., Mol. Pharmacol. 2004, 66, (3), 675-682 and Eshleman, A. J.; Carmolli, M.; Cumbay, M.; Martens, C. R.; Neve, K. A.; Janowsky, A., J. Pharmacol. Exp. Ther. 1999, 289, (2), 877-885, both incorporated by reference herein in their entireties.

Setting [2] is: EC80-EC90 carbamylcholine, SH-EP1-hα4β2, parentheses = S.E.M. as multiplication/division factor, read-out: nAChR inhibition IC50 α4β2.

Read-outs that look alike come from different tables or passages of the source.

T1 sequence (P43681 29-627 limits assumed): as the sequence (P43681 29-627 limits assumed) above
T1 sequence (P17787 26-502): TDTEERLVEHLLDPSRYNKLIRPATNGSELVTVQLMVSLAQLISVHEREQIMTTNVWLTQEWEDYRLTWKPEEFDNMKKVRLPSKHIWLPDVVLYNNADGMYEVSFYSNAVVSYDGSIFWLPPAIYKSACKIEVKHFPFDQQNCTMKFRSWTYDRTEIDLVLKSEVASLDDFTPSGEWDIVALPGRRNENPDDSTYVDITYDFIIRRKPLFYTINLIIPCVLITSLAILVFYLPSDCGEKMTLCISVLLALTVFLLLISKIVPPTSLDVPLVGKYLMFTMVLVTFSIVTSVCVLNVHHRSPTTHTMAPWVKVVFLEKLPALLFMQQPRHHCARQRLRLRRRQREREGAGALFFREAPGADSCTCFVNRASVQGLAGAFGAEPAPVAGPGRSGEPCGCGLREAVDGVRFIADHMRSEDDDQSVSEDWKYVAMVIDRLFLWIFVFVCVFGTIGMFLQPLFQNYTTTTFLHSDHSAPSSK

A word on the IC50: it is the concentration needed to halve the response being measured. As to `C[C@@H]1NC(C)(C)CO[C@@]1(O)c1ccc(F)c(F)c1` [Compound 4m, (2S,3S)-2-(3,4-Difluorophenyl)-3,5,5-trimethylmorpholin-2-ol], the IC50 on α4β2-nAChR (setting [2]) is 12 µM; on α4β4-nAChR, greater than 100 µM; on α3β4*-nAChR, 11.9 µM; on NE transporters [h(NET)], 0.74 ± 0.11 µM. In addition, in test [1], the “AD50 Hot-plate” value is “IA (IA: AD50 > 15 mg/kg)”.
Consider `C[C@@H]1NC(C)(C)CO[C@@]1(O)c1cc(F)cc(F)c1` [Compound 4o, (2S,3S)-2-(3,5-Difluorophenyl)-3,5,5-trimethylmorpholin-2-ol], for which the IC50 at α4β2-nAChR was less than 10 µM; at α4β2-nAChR (setting [2]) it was 6.3 µM; at α4β4-nAChR it was 62 µM; at α3β4*-nAChR it was 11 µM; at NE transporters [h(NET)], 0.151 ± 0.043 µM. Moreover, in test [1], the “AD50 Hot-plate” value is given as “IA (IA: AD50 > 15 mg/kg)”. On NE transporters [h(NET)], the “selectivity for inhibition of NE uptake over α4β2-nAChR function” value is given as 42 fold.
`C[C@@H]1NC(C)(C)CO[C@@]1(O)c1cccc2ccccc12` [Compound 4q, (2S,3S)-2-(Naphthalen-1-yl)-3,5,5-trimethylmorpholin-2-ol]: the IC50 on α4β2-nAChR (setting [2]) stood at 9 µM; at α4β4-nAChR, 13 µM; at α3β4*-nAChR it was 5.2 µM; on NE transporters [h(NET)], 0.411 ± 0.053 µM. Besides, the “AD50 Hot-plate” value in test [1] was “IA (IA: AD50 > 15 mg/kg)”. Also, the “selectivity for inhibition of NE over DA uptake” value on NE transporters [h(NET)] was 24 fold.
As for `C[C@@H]1NC(C)(C)CO[C@@]1(O)c1ccc2ccccc2c1` [Compound 4r, (2S,3S)-2-(Naphthalen-2-yl)-3,5,5-trimethylmorpholin-2-ol], the IC50 on α4β2-nAChR (setting [2]) was 6.5 µM; at α4β4-nAChR, 11 µM; on α3β4*-nAChR, 2 µM; at NE transporters [h(NET)], 1.57 ± 0.43 µM. The “AD50 Hot-plate” value in test [1] is “IA (IA: AD50 > 15 mg/kg)”. Moreover, the “selectivity for inhibition of NE uptake over α3β4*-nAChR function” value at NE transporters [h(NET)] is on record as 1.3 fold. The “selectivity for inhibition of NE uptake over α4β2-nAChR function” value at NE transporters [h(NET)] is roughly 4 fold.
As to `CC[C@@H]1NC(C)(C)CO[C@@]1(O)c1cccc(Cl)c1` [Compound 4s, (2S,3S)-2-(3-Chlorophenyl)-3-ethyl-5,5-dimethylmorpholin-2-ol], the half-inhibitory concentration (IC50) on α4β2-nAChR (setting [2]) came to 2.9 µM; on α4β4-nAChR it was 16 µM; on α3β4*-nAChR, 4.3 µM; at NE transporters [h(NET)], 0.043 µM. Moreover, in test [1] (Mus musculus, read-out: AD50 Hot-plate), the ED50 was in the range of 3.7 to 8.6 mg/kg. Also, the “selectivity for inhibition of NE over DA uptake” value on NE transporters [h(NET)] is 5 fold.
Turning to `C[C@@H]1N(C)C(C)(C)CO[C@@]1(O)c1cccc(Cl)c1` [Compound 4u, (2S,3S)-2-(3-Chlorophenyl)-3,4,5,5-tetramethylmorpholin-2-ol], the IC50 stood at 7.1 µM on α4β2-nAChR (setting [2]), 43 µM at α4β4-nAChR, 6.5 µM at α3β4*-nAChR and 0.415 ± 0.009 µM at NE transporters [h(NET)]. Further, the “AD50 Hot-plate” value in test [1] is recorded as “IA (IA: AD50 > 15 mg/kg)”.
In the case of `C[C@@H]1N(C)C(C)(C)CO[C@@]1(O)c1ccc(Cl)cc1` [Compound 4v, (2S,3S)-2-(4-Chlorophenyl)-3,4,5,5-tetramethylmorpholin-2-ol], the IC50 on α4β2-nAChR (setting [2]) came out at 42 µM; on α4β4-nAChR it was 91 µM; at α3β4*-nAChR, 4.6 µM; on NE transporters [h(NET)], 0.527 ± 0.104 µM. Moreover, the “AD50 Hot-plate” value in test [1] is listed as “IA (IA: AD50 > 15 mg/kg)”.

The record behind these values is patent US8906908B2, “Hydroxybupropion analogues for treating drug dependence” (priority 2010, dated 2014).
